Data set [1] concerns PNT2. Kind of data set: Cytotoxicity against human PNT2 cells assessed as inhibition of cell growth measured upto 15 uM incubated for 5 days by WST-8 assay. Particulars: pnt2, 120 h, time 5 day. It is filed as toxicity, cell-based.
The target of data set [2] is Protein cereblon/Eukaryotic peptide chain release factor GTP-binding subunit ERF3A (Homo sapiens) (UniProt Q96SW2+P15170). The data set is described as follows: PROTAC activity at CRBN/GSPT1 in human K562 cells assessed as degradation of GSPT1 protein at 0.1 to 10 uM incubated for 4 hrs by Western blotting analysis. It is filed as cell-based. To be noted: dose 0.1-10 µM. On the technique in general: Immunoblotting shows a protein as a band on a membrane.

The structures appear in SMILES notation. Activity calls are given as the source filed them. The rule behind the calls is not given here.

Chain of Protein cereblon/Eukaryotic peptide chain release factor GTP-binding subunit ERF3A (Homo sapiens) (P15170 whole entry, looked up): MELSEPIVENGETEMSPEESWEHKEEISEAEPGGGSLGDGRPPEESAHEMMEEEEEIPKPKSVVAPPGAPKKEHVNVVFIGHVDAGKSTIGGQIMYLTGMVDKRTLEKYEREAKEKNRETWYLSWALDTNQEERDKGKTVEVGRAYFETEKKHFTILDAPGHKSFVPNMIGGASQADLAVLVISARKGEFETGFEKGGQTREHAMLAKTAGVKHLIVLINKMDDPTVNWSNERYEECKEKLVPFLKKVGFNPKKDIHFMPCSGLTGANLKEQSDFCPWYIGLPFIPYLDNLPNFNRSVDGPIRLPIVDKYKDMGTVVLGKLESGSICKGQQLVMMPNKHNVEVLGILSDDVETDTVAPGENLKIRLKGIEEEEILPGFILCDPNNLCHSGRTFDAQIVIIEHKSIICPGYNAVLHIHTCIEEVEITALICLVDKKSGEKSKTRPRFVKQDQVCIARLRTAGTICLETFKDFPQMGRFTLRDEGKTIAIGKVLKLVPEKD
Chain of Protein cereblon/Eukaryotic peptide chain release factor GTP-binding subunit ERF3A (Homo sapiens) (Q96SW2 whole entry, looked up): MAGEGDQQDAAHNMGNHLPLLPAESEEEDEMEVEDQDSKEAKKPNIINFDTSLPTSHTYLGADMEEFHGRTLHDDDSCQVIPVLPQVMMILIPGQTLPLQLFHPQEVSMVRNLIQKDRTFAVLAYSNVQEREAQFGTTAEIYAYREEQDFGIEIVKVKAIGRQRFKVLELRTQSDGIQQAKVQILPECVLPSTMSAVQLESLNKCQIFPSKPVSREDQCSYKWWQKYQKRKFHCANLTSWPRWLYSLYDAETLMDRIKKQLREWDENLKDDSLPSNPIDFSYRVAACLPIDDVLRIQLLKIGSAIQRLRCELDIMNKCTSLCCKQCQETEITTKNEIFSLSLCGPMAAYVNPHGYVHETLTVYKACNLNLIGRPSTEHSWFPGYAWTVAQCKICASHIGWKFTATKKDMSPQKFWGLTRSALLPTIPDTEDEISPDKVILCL

With `O=C(CNc1cccc2c1C(=O)N(C1CCC(=O)NC1=O)C2=O)NCCCCN1CCN(c2ccc(-c3cnc(NCc4ccco4)n4cnnc34)cc2)CC1` (configuration not stated), the Activity entry in data set [1] is “Non-Toxic”. Moreover, the outcome in data set [2] was inactive.

Source of the values: ChEMBL document CHEMBL5543147, “Discovery and Characterization of a Novel Cereblon-Recruiting PRC1 Bridged PROTAC Degrader” (J Med Chem, 2024).
